Measurements reported in patent publication US10519147B2 (Merck Sharp & Dohme Corp., priority 2015, dated 2019).

What was measured:
human Nav1.5 = target: T1, human Nav1.5 (Homo sapiens, UniProt Q14524); assay: IonWorks Quattro automated patch-clamp, Nav1.5 (selectivity against Nav1.7); assay type: cell-based; conditions: IonWorks measurement, HEK 293 cells, inactivated state block
T1 construct: expressed in transfected cells; host or cells: HEK 293
Description: (§1) Compounds were tested on human Nav1.7 and Nav1.5 channels stably expressed in HEK 293 cells. […] Cells were sealed on a planar substrate using the Population Patch […] (PPC) technology. Electrical access was obtained using both nystatin and amphotericin. A double-pulse protocol was used for the determination of IC50 values for inactivated state block. Nav1.7 and Nav1.5 expressing cells were voltage clamped at −100 mV and −110 mV, respectively. A depolarizing prepulse to −10 mV (Nav1.7) or −30 mV (Nav1.5) for 1000 ms followed by a 10 ms repolarization to −100 mV (Nav1.7) or −110 mV (Nav1.5) was given to generate fractional channel inactivation of 50%, followed by a 10 ms test pulse to −10 mV (Nav1.7) or −30 mV (Nav1.5) to measure peak current in control conditions and after compound addition. The following recording solutions were used (mM). External: 150 NaCl, 2 CaCl2, 5 KCl, 1 Mg Cl2, 10 HEPES, 12 Dextrose; internal: 120 CsF, 30 CsCl, 10 EGTA, 5 HEPES, 5 NaF, 2 MgCl2.
(§2) For all electrophysiology experiments, offline analysis was used to determine percent inhibition as a function of drug concentration. IC50 values were determined by fitting to the Hill equation.

human Nav1.7 = target: T2, human Nav1.7 (Homo sapiens, UniProt Q15858); assay: IonWorks Quattro automated patch-clamp, inactivated state block of Nav1.7; assay type: cell-based; conditions: channels stably expressed in HEK 293 cells; double-pulse protocol, inactivated state block; read-out: potency for the Nav 1.7 sodium ion channel (IC50, as measured by IonWorks)
T2 construct: expressed in transfected cells; host or cells: HEK 293
T2 sequence (Q15858 whole entry): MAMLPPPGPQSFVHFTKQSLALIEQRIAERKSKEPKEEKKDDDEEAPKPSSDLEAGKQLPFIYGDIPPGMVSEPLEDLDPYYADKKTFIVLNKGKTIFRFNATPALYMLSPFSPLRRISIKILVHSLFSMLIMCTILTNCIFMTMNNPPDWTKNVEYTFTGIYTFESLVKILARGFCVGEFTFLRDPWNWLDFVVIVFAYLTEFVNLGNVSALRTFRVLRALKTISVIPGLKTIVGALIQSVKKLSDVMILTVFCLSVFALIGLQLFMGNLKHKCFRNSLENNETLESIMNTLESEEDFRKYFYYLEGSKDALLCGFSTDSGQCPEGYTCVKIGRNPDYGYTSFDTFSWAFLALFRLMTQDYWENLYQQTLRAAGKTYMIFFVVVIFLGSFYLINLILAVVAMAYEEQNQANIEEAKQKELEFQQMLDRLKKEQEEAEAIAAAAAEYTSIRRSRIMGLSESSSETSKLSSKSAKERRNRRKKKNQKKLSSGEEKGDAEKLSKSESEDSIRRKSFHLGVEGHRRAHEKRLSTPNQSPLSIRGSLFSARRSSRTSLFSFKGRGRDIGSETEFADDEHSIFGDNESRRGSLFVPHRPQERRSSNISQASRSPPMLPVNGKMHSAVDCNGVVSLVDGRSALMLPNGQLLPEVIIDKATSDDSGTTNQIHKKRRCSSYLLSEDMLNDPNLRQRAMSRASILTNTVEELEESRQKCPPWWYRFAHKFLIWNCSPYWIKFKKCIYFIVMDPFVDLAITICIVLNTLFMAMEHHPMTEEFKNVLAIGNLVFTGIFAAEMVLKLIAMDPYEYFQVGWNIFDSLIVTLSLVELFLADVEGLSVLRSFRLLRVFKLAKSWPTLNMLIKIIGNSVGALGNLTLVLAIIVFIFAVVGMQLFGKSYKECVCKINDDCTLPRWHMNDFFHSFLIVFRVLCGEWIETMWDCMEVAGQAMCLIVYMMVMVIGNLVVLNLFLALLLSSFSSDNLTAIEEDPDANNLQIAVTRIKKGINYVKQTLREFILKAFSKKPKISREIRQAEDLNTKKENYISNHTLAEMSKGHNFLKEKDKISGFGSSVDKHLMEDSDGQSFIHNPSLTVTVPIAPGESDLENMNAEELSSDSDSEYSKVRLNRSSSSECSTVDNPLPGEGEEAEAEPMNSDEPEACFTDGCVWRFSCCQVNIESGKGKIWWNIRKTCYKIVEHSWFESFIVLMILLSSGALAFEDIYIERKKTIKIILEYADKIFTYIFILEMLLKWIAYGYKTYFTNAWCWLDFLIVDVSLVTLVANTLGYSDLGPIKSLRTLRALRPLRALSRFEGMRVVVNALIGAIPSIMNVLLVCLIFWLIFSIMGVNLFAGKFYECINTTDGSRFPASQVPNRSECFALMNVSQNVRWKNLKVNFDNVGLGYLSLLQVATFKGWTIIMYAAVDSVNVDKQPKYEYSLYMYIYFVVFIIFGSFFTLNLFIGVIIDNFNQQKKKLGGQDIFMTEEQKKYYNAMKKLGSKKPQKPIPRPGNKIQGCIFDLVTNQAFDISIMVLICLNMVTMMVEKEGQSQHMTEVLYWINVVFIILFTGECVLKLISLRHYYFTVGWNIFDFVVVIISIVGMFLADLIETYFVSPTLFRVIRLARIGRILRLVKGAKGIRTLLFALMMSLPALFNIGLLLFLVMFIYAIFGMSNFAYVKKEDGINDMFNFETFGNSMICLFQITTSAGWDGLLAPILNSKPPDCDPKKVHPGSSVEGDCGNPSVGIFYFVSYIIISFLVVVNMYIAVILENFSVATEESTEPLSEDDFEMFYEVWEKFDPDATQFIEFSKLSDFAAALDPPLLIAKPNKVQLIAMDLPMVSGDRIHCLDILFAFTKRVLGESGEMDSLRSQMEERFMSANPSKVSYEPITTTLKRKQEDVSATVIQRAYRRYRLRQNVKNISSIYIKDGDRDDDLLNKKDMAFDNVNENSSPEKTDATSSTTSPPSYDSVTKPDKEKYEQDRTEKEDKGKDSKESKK
Description: as §1, §2

T1 sequence (Q14524 whole entry): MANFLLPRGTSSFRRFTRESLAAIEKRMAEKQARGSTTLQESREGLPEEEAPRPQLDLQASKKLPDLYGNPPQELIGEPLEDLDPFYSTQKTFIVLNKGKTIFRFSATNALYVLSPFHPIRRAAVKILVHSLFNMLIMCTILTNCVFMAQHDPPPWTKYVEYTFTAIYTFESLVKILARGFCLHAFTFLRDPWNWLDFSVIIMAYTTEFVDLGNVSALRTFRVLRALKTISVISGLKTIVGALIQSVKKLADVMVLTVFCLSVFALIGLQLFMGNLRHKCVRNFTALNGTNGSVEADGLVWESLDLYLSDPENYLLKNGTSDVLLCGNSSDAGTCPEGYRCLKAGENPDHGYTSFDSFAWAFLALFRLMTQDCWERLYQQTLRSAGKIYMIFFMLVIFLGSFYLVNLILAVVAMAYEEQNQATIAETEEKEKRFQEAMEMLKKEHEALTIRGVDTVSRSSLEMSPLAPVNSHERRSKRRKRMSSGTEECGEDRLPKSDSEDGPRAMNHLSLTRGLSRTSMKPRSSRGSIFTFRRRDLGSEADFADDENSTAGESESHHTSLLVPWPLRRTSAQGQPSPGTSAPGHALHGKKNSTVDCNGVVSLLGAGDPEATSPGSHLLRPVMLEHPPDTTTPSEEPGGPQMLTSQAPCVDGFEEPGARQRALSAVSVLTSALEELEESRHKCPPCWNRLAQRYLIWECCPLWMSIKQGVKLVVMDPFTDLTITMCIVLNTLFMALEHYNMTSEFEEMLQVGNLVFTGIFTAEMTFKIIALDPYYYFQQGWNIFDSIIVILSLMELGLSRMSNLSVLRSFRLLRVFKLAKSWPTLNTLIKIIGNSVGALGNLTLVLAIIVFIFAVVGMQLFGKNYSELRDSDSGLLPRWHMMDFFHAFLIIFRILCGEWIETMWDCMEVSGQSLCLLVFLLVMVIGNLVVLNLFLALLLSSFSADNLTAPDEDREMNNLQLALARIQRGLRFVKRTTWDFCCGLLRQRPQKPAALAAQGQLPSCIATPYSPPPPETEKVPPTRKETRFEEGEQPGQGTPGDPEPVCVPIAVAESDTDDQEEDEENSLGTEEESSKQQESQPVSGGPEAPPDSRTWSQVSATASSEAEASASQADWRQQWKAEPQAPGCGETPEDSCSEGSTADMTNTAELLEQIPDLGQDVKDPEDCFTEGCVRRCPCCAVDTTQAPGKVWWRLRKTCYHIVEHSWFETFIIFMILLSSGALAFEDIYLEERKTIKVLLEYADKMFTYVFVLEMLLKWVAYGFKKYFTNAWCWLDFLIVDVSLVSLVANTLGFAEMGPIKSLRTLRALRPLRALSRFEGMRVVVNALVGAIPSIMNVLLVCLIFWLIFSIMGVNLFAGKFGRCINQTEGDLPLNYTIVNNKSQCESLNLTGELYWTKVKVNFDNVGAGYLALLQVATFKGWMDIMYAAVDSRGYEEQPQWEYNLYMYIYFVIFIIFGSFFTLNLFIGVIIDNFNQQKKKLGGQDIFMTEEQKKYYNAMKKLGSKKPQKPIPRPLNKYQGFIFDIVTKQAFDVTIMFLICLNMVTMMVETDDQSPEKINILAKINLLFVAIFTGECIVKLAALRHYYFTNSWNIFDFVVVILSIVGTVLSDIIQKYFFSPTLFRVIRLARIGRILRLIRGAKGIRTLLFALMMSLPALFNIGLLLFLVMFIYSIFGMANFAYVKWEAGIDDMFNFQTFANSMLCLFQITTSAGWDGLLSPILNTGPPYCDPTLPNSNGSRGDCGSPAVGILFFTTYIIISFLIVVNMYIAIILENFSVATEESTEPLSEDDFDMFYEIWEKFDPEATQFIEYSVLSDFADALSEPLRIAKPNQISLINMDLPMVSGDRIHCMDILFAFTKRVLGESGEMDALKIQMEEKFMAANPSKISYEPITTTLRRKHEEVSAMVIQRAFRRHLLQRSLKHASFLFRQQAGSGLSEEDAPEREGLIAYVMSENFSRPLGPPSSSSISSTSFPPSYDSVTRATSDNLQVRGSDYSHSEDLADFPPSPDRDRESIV

Structure (SMILES) | ratio of Nav 1.7 potency:Nav 1.5 potency (human Nav1.5) | IC50 (human Nav1.7)
C[C@H](CCN)NCCCCNc1cc(F)c(S(=O)(=O)Nc2ncns2)cc1Br [Ex 16-79, 4-[4-[[(1R)-3-amino-1-methyl-propyl]amino]butylamino]-5-bromo-2-fluoro-N-(1,2,4-thiadiazol-5-yl)benzenesulfonamide] | 4260 | 5.4 nM
N[C@H]1CCCC[C@@H]1NCCCCNc1cc(F)c(S(=O)(=O)Nc2nccs2)cc1Cl [Ex 1-07, 4-[(4-{[(1S,2S)-2-amino-cyclohexyl]amino}butyl)-amino]-5-chloro-2-fluoro-N-1,3-thiazol-2-yl-benzenesulfonamide] | > 1800 | 18 nM
O=S(=O)(Nc1ncc(F)s1)c1cc(Cl)c(NCCCCNC2CNC2)cc1F [Ex 16-22, 4-{[4-(azetidin-3-ylamino)-butyl]amino}-5-chloro-2-fluoro-N-(5-fluoro-1,3-thiazol-2-yl)benzene-sulfonamide] | > 868 | 38 nM
N[C@@H]1CCCC[C@H]1NCCCCNc1cc(F)c(S(=O)(=O)Nc2nccs2)cc1Cl [Ex 1-28, 4-[(4-{[(1R,2R)-2-aminocyclohexyl]amino}butyl)amino]-5-chloro-2-fluoro-N-1,3-thiazol-2-ylbenzenesulfonamide] | > 3930 | 8.4 nM
O=S(=O)(Nc1nccs1)c1cc(Cl)c(NCCCCNC[C@@H]2CCN2)cc1F [Ex 16-74, 4-[(4-{[(2S)-azetidin-2-ylmethyl]amino}butyl)amino]-5-chloro-2-fluoro-N-1,3-thiazol-2-ylbenzenesulfonamide] | > 429 | 77 nM
N[C@H]1CCC[C@@H]1NCCCCNc1cc(F)c(S(=O)(=O)Nc2ncc(F)s2)cc1Cl [Ex 16-71, 4-[(4-{[(1S,2S)-2-aminocyclopentyl]amino}butyl)amino]-5-chloro-2-fluoro-N-(5-fluoro-1,3-thiazol-2-yl)benzenesulfonamide] | > 4710 | 7 nM
C[C@H](CCN)NCCCCNc1cc(F)c(S(=O)(=O)Nc2ncc(F)s2)cc1Cl [Ex 16-25, 4-[(4-{[(1R)-3-amino-1-methylpropyl]amino}butyl)amino]-5-chloro-2-fluoro-N-(5-fluoro-1,3-thiazol-2-yl)-benzenesulfonamide] | > 1270 | 26 nM
N[C@@H]1CCC[C@H]1NCCCCNc1cc(F)c(S(=O)(=O)Nc2ncns2)cc1F [Ex 16-86, 4-[4-[[(1R,2R)-2-aminocyclopentyl]amino]butylamino]-2,5-difluoro-N-(1,2,4-thiadiazol-5-yl)benzenesulfonamide] | > 850 | 39 nM
NC1CCC1NCCCCNc1cc(F)c(S(=O)(=O)Nc2ncns2)cc1Cl (stereo not drawn) [Ex 16-81, 4-[4-[(2-aminocyclobutyl)amino]butylamino]-5-chloro-2-fluoro-N-(1,2,4-thiadiazol-5-yl) benzenesulfonamide] | > 6700 | 4.9 nM
NCC1(NCCCCNc2cc(F)c(S(=O)(=O)Nc3ncc(F)s3)cc2Cl)CCC1 [Ex 16-62, 4-[(4-{[1-(aminomethyl)cyclobutyl]amino}butyl)amino]-5-chloro-2-fluoro-N-(5-fluoro-1,3-thiazol-2-yl)benzenesulfonamide] | > 917 | 36 nM
O=S(=O)(Nc1ncns1)c1cc(Br)c(NCCCCNC[C@@H]2CCN2)cc1F [Ex 16-76, 4-[(4-{[(2S)-azetidin-2-ylmethyl]amino}butyl)amino]-5-bromo-2-fluoro-N-1,2,4-thiadiazol-5-ylbenzenesulfonamide] | > 1940 | 17 nM
N[C@@H]1CCC[C@H]1NCCCCNc1cc(F)c(S(=O)(=O)Nc2ncns2)cc1Cl [Ex 12-07, 4-[(4-{[(1R,2R)-2-aminocyclo-pentyl]amino}butyl)amino]-5-chloro-2-fluoro-N-1,2,4-thiadiazol-5-yl-benzene-sulfonamide] | > 5500 | 6 nM
